We go through three compounds from patent US7687508B2, “Cyclic derivatives as modulators of chemokine receptor activity” (Bristol-Myers Squibb Company, priority 2006, dated 2010).

What is called IC50 is the midpoint of a concentration-inhibition curve.

In assay [1] the target is T1, human CCR2 (Homo sapiens, UniProt P41597).
T1 sequence (P41597 1-360 isoform P41597-2): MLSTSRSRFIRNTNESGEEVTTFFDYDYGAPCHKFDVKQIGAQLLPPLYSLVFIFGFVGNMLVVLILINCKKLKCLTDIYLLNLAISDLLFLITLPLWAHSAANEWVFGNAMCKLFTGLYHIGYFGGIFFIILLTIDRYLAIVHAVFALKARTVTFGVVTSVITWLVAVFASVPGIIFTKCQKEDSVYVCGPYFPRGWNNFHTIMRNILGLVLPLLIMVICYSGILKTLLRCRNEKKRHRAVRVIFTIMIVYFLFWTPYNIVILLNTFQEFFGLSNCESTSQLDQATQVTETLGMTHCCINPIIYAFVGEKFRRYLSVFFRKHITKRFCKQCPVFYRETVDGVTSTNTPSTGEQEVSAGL
Kind of assay: THP-1 binding (CCR2, 125I-human MCP-1 tracer). Details: THP-1 human monocytic leukemic cell line, which expresses endogenous CCR2; endogenous in cells; host or cells: THP-1 human monocytic leukemia cells. The following applies: metabolite examples; THP-1 cells, 125I-MCP-1. As for the experimental part:
The human CCR2 binding assay was also established with the THP-1 human monocytic leukemic cell line, which expresses endogenous CCR2, using 125I-human MCP-1 as the tracer ligand. Radioligand competition binding assays were used for assessment of binding affinity of test compounds to the CCR2 receptor. For radioligand competition studies, 100 μl containing 2.5×10^5 THP-1 cells/well (in assay buffer containing 50 mM HEPES, pH7.4, 5 mM MgCl2, 1 mM CaCl2 and 0.5% BSA) were added to 96-well assay plates containing test compound in 3-fold serial dilution, with final concentrations ranging from […]. Subsequently, 50 μl ^125I-MCP-1 radioligand at a final concentration of 0.2 nM in assay buffer were added to the reaction. After a 90 minute incubation period at room temperature, the binding reaction was terminated by harvesting on GF/B filter plates (PerkinElmer Cat. No. 6005177) followed by washing with ice-cold wash buffer (50 mM HEPES, pH 7.4, 0.1% BSA, 0.5 M NaCl) to remove unbound ligand. After washing, the plate was dried for 45 minutes at 60° C. followed by addition of 40 μl MicroScint 20 scintillation fluid, sealed and analyzed by the Packard TopCount reader. […] The competition data was plotted as a percentage inhibition of radioligand specific bound in the absence of test compound (percent of total signal). After correcting for non-specific binding, IC50 values were determined.

The target of assay [2] is T1, human CCR2. The assay is described as follows: Human peripheral blood mononuclear cell binding (CCR2 binding), 125I-human MCP-1 tracer. Details: hPBMCs were isolated from human leukopak (Biological Specialty Inc.); endogenous in cells; host or cells: human peripheral blood mononuclear cells from leukopak (Biological Specialty Inc.). The following applies: metabolite examples; hPBMCs, 125I-MCP-1; read-out: PBMC Binding IC50. As for the experimental part:
See also: Yoshimura et al., J. Immunol. 1990, 145, 292. The human CCR2 binding assay was established with human peripheral blood mononuclear cells (hPBMCs) using ^125I-human MCP-1 as the tracer ligand. hPBMCs were isolated from human leukopak (Biological Specialty Inc.) using a standard protocol with Ficoll-Hypaque (Mediatech Cellgro). Isolated hPBMCs were washed and diluted to 1×10^7/ml in binding buffer (RPMI-1640, 0.1% BSA, 20 mM Hepes, pH 7.4). ^125I-MCP-1 (NEN/Perk Elmer) was diluted to 0.45 nM in binding buffer. The compound was diluted in binding buffer at 3-fold the final concentrations used in the binding assay. The binding assay was performed using a 96-well filter plate (Millipore). Total ^125I-MCP-1 binding was assessed as follows: to each reaction of a total volume of 150 μl were added 5×10^5 cells, 0.15 nM […], and compound such that the final concentration ranged from 0 to 100 nM. The plate was incubated at room temperature for 30 minutes followed by three washes with RPMI-1640, 0.1% BSA, 0.4 M NaCl, 20 mM Hepes, pH 7.4 using a vacuum manifold filtration (Millipore). After washing, the plate was air-dried for 60 minutes at room temperature. This was followed by adding 25 μl of Microscint 20 into each well. The plate was sealed and counted on the Trilux for 1 minute. Non-specific binding was determined in the presence of 300 nM cold MCP-1 (PeproTech Inc.). Specific 1-MCP-1 was calculated as the difference between total and non-specific binding. All conditions were tested in duplicate.

For `CC(=O)N[C@@H]1C[C@H](N)CC[C@@H]1N1CC[C@H](Nc2ncnc3ccc(C(F)(F)F)cc23)C1=O` [Example 4, N-((1R,2S,5R)-5-amino-2-((3S)-2-oxo-3-((6-(trifluoromethyl)-4-quinazolinyl)amino)-1-pyrrolidinyl)cyclohexyl)acetamide], the IC50 in assay [1] was 4.22 ± 1.22 nM; in assay [2] it was 3.46 ± 1.1 nM.
Consider `CC(=O)N[C@@H]1C[C@H](NC(C)(C)C)CC[C@@H]1N1CC[C@H](Nc2nc[n+]([O-])c3ccc(C(F)(F)F)cc23)C1=O` [Example 14, N-((1R,2S,5R)-5-(tert-butylamino)-2-((3S)-3-((1-oxido-6-(trifluoromethyl)-4-quinazolinyl)amino)-2-oxo-1-pyrrolidinyl)cyclohexyl)acetamide], for which the figures for the IC50 in assay [1] and in assay [2] were 19.9 nM and 14.9 ± 5.2 nM, respectively.
Consider `CC(=O)N[C@@H]1C[C@H](N(C)C(C)C)CC[C@@H]1N1CC[C@H](Nc2nc[n+]([O-])c3ccc(C(F)(F)F)cc23)C1=O` [Example 5, N-((1R,2S,5R)-5-(isopropyl(methyl)amino)-2-((3S)-3-((1-oxido-6-(trifluoromethyl)-4-quinazolinyl)amino)-2-oxo-1-pyrrolidinyl)cyclohexyl)acetamide], for which the half-inhibitory concentration (IC50) in assay [1] is 21.3 nM; in assay [2] it was 27.5 ± 1.4 nM.
